{
  "source": "patent US20200054651A1",
  "about": "“COMPOSITIONS AND METHODS FOR MODULATING PPP2R1A” (The Regents of the University of California, priority 2017, published 2020)",
  "key": {"SCP2 C307": {"target": "T1, SCP2 C307 (Homo sapiens, UniProt P22307)", "T1 construct": "IsoTOP-ABPP analysis of DKM 2-90 treatment in 231MFP cells in situ; endogenous in cells; host or cells: 231MFP cells", "T1 sequence (P22307 1-547)": "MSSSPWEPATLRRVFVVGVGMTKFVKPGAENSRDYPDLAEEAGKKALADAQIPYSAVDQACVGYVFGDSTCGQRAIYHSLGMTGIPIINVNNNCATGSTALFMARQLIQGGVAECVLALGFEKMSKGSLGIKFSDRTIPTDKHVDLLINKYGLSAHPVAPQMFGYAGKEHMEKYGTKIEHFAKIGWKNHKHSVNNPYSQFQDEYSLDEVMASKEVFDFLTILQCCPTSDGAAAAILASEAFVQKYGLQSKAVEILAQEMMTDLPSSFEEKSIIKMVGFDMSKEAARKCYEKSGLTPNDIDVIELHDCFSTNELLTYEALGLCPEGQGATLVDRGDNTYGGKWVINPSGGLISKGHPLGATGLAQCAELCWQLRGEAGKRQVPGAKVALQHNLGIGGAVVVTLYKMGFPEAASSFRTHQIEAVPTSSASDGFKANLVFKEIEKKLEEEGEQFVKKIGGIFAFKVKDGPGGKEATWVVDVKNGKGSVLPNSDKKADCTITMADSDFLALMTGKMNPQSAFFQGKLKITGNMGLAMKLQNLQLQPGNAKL", "test": "isoTOP-ABPP after in situ treatment of 231MFP cells", "assay_type": "binding", "conditions": "100 μM, 4 h in 231MFP cells in situ", "method": "(§1) IsoTOP-ABPP studies were performed using the methods described in “Nature 534(7608), 570-574 (2016)” by Backus K. M., et al. and “Nature 468(7325), 790-795 (2010)” by Weerapana E., et al. […] Then, IAyne (iodoacetamide-alkyne) labeling was performed for 1 hour at room temperature. CuAAC was used by sequential addition of tris(2-carboxyethyl)phosphine (1 mM), tris[(1-benzyl-1H-1,2,3-triazol-4-yl)methyl]amine (34 μM), copper (II) sulfate (1 mM), and biotin-linker-azide where the linker was functionalized with a TEV protease recognition sequence along with an isotopically light or heavy valine for treatment of control or treated proteome, respectively. After click reactions, proteomes were precipitated by centrifugation at 6500×g, washed in ice-cold methanol, combined in a 1:1 control/treated ratio, washed again, then denatured and re-solubilized by heating in 1.2% SDS/PBS to 80° C. for 5 minutes. Insoluble components were precipitated by centrifugation at 6500×g and soluble proteome was diluted in 0.2% SDS/PBS (5 ml). Labeled proteins were bound to avidin-agarose beads (170 μl re-suspended beads/sample) while rotating overnight at 4° C. Bead-linked proteins were enriched by washing three times each in PBS and water, then re-suspended in urea/PBS (6 M), reduced in TCEP (1 mM), alkylated with iodoacetamide (18 mM), then washed and re-suspended in urea/PBS (2 M), and finally trypsinized overnight with 0.5 μg/μl sequencing grade trypsin. Tryptic peptides were eluted off. Beads were washed in PBS (3 times) and water (3 times), washed in TEV buffer solution (water, TEV buffer, 100 μM dithiothreitol), and re-suspended in buffer with Ac-TEV protease and then incubated overnight. Peptides were diluted in water, acidified with formic acid (1.2 M), and prepared for analysis.\n(§2) Peptides from all proteomic experiments were pressure-loaded onto an Agilent 600 series RP-HPLC system equipped with a capillary tubing (250 mm) packed with Aqua C18 reverse-phase resin (4 cm). The system was previously equilibrated with a gradient (0% B to 100% B over 10 minutes, 100% B for 5 minutes, then 0% B for 5 minutes; buffer A: 95:5 water:acetonitrile, 0.1% formic acid; buffer B: 80:20 acetonitrile:water, 0.1% formic acid). The samples were then attached using a MicroTee PEEK 360 μm fitting to a laser pulled column (13 cm) packed with Aqua C18 reverse-phase resin (10 cm) and strong-cation exchange resin (3 cm) for isoTOP-ABPP studies. Samples were analyzed using an Q Exactive Plus mass spectrometer using a 5-step Multidimensional Protein Identification Technology (MudPIT) program. The system was run using a gradient (5% B to 55% B; buffer A: 95:5 water:acetonitrile, 0.1% formic acid; buffer B: 80:20 acetonitrile:water, 0.1% formic acid), along with a salt bump feeding aqueous ammonium acetate (500 mM) at an increment of 0%, 25%, 50%, 80%, to 100%. Data was collected in data-dependent acquisition mode with dynamic exclusion enabled (60 sec). One full MS scan (400-1800 m/z) (MS1 scan) was conducted, followed by MS2 scan (ITMS) (15 times) of the most abundant ions. Heated capillary temperature was set to 200° C. and the nanospray voltage was set to 2.75 kV.\n(§3) Data was extracted in the form of MS1 and MS2 files using Raw Extractor 1.9.9.2 and searched against the Uniprot […] database using ProLuCID search methodology in IP2 v.3, described in “J Proteomics 129:16-24 (2015)” by Xu T, et al. Cysteine residues were searched with a static modification for carboxyaminomethylation (+m/z 57.02146), up to two differential modifications for methionine oxidation, and either the light or heavy TEV tags (+m/z 464.28596 or +m/z 470.29977, respectively). Peptides were required to have at least one tryptic end and to contain the TEV modification. ProLUCID data was filtered through DTASelect to achieve a peptide false-positive rate below 1%. […]"}, "TXNDC17 C43": {"target": "T2, TXNDC17 C43 (Homo sapiens, UniProt Q9BRA2)", "T2 construct": "IsoTOP-ABPP analysis of DKM 2-90 treatment in 231MFP cells in situ; endogenous in cells; host or cells: 231MFP cells", "T2 sequence (Q9BRA2 1-123)": "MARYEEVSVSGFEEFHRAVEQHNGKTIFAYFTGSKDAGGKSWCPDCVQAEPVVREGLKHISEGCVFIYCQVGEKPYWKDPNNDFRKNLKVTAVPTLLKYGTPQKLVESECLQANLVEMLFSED", "test": "isoTOP-ABPP after in situ treatment of 231MFP cells", "assay_type": "binding", "conditions": "100 μM, 4 h in 231MFP cells in situ", "method": "as §1, §2, §3"}, "ACAT1 C196": {"target": "T3, ACAT1 C196 (Homo sapiens, UniProt P24752)", "T3 construct": "IsoTOP-ABPP analysis of DKM 2-90 treatment in 231MFP cells in situ; endogenous in cells; host or cells: 231MFP cells", "T3 sequence (P24752 34-427)": "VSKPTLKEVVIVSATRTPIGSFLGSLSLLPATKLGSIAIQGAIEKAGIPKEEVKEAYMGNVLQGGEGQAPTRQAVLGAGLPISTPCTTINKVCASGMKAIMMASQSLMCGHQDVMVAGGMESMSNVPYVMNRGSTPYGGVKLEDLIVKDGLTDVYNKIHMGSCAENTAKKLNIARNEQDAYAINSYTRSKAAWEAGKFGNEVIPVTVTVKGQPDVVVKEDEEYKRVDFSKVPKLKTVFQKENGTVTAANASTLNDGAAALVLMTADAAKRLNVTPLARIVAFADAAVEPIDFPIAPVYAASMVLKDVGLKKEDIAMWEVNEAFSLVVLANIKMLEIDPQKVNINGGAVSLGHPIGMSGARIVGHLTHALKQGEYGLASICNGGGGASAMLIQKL", "test": "isoTOP-ABPP after in situ treatment of 231MFP cells", "assay_type": "binding", "conditions": "100 μM, 4 h in 231MFP cells in situ", "method": "as §1, §2, §3"}, "[1]": {"test": "In vivo tolerability during xenograft treatment", "conditions": "daily treatment for >30 days, 50 mg/kg ip"}, "MCF7 cells": {"tested_on": "MCF7 cells", "test": "MCF7 cell proliferation", "assay_type": "cell-based", "conditions": "10 μM, 48 h"}},
  "data": [
    {"smiles": "O=C(CCl)Nc1ccc2c(c1)OCCO2", "note": "[DKM 2-90, 2-Chloro-N-(2,3-dihydrobenzo[β][1,4]dioxin-6-yl)acetamide]", "values": [
      {"measurement": "isotopically light to heavy ratio, SCP2 C307", "setting": "SCP2 C307", "value": "> 5"},
      {"measurement": "isotopically light to heavy ratio, TXNDC17 C43", "setting": "TXNDC17 C43", "value": "> 5"},
      {"measurement": "isotopically light to heavy ratio, ACAT1 C196", "setting": "ACAT1 C196", "value": "> 5"}
    ]},
    {"smiles": "O=C(CCl)N(Cc1ccccc1)c1ccc2c(c1)OCCO2", "note": "[JNS 1-40, N-benzyl-2-chloro-N-(2,3-dihydrobenzo[b][1,4]dioxin-6-yl)acetamide]", "values": [
      {"measurement": "overt toxicity or body weight loss", "setting": "[1]", "value": "did not cause any overt toxicity or body weight loss"}
    ]},
    {"smiles": "CC1=C(CO)C(=O)O[C@@H]([C@@H](C)[C@H]2CC[C@H]3[C@@H]4C[C@H]5O[C@]56[C@@H](O)C=CC(=O)[C@]6(C)[C@H]4CC[C@]23C)C1", "note": "[withaferin A, reference compound]", "values": [
      {"measurement": "cell proliferation", "setting": "MCF7 cells", "value": "impairs"}
    ]}
  ]
}
